ChEMBL document CHEMBL1201862, “PubChem BioAssay data set” (2004)
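Following 48 hours of exposure in 96-well plates, responses at five concentrations were used to interpolate endpoints linearly. Abbreviation: GI50, concentration required for 50% inhibition of growth.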 Calls of active or inactive are those of the source. Rule as the data show it: active = GI50 up to about 1.1 µM and inactive = higher.

Key:
Assay in all cases: NCI tumour cell line growth inhibition, 48 h
786-0 = system: 786-0
A498 = system: A498
A549 = system: A549
ACHN = system: ACHN
BT-549 = system: BT-549
CAKI-1 = system: CAKI-1
COLO 205 = system: COLO 205
DU-145 = system: DU-145
EKVX = system: EKVX
HCC 2998 = system: HCC 2998
HCT-116 = system: HCT-116
HCT-15 = system: HCT-15
HL-60 = system: HL-60
HOP-62 = system: HOP-62
HT-29 = system: HT-29
Hs-578T = system: Hs-578T
IGROV-1 = system: IGROV-1
K562 = system: K562
KM12 = system: KM12
LOX IMVI = system: LOX IMVI
M14 = system: M14
MCF7 = system: MCF7
MDA-MB-231 = system: MDA-MB-231
MDA-MB-435 = system: MDA-MB-435
MDA-N = system: MDA-N
MOLT-4 = system: MOLT-4
Malme-3M = system: Malme-3M
NCI-H226 = system: NCI-H226
NCI-H23 = system: NCI-H23
NCI-H460 = system: NCI-H460
NCI-H522 = system: NCI-H522
NCI/ADR-RES = system: NCI/ADR-RES
OVCAR-3 = system: OVCAR-3
OVCAR-4 = system: OVCAR-4
OVCAR-5 = system: OVCAR-5
OVCAR-8 = system: OVCAR-8
PC-3 = system: PC-3
RPMI-8226 = system: RPMI-8226
RXF 393 = system: RXF 393
SF-268 = system: SF-268
SF-295 = system: SF-295
SK-MEL-28 = system: SK-MEL-28
SK-MEL-5 = system: SK-MEL-5
SK-OV-3 = system: SK-OV-3
SNB-19 = system: SNB-19
SNB-75 = system: SNB-75
SR = system: SR
SW-620 = system: SW-620
TK-10 = system: TK-10
U-251 = system: U-251
UACC-257 = system: UACC-257
UACC-62 = system: UACC-62
UO-31 = system: UO-31
CCRF-CEM = system: CCRF-CEM
HOP-92 = system: HOP-92
SF-539 = system: SF-539
SN12C = system: SN12C

N/C(=N\c1cccc(Cl)c1)c1ccccc1N
GI50 (786-0): > 100 µM (inactive)
GI50 (A498): > 100 µM (inactive)
GI50 (A549): > 100 µM (inactive)
GI50 (ACHN): > 100 µM (inactive)
GI50 (BT-549): > 100 µM (inactive)
GI50 (CAKI-1): > 100 µM (inactive)
GI50 (COLO 205): > 100 µM (inactive)
GI50 (DU-145): > 100 µM (inactive)
GI50 (EKVX): > 100 µM (inactive)
GI50 (HCC 2998): > 100 µM (inactive)
GI50 (HCT-116): > 100 µM (inactive)
GI50 (HCT-15): > 100 µM
GI50 (HL-60): > 100 µM (inactive)
GI50 (HOP-62): > 100 µM (inactive)
GI50 (HT-29): > 100 µM (inactive)
GI50 (Hs-578T): > 100 µM (inactive)
GI50 (IGROV-1): > 100 µM (inactive)
GI50 (K562): > 100 µM (inactive)
GI50 (KM12): > 100 µM (inactive)
GI50 (LOX IMVI): > 100 µM (inactive)
GI50 (M14): > 100 µM (inactive)
GI50 (MCF7): > 100 µM (inactive)
GI50 (MDA-MB-231): > 100 µM (inactive)
GI50 (MDA-MB-435): > 100 µM (inactive)
GI50 (MDA-N): > 100 µM (inactive)
GI50 (MOLT-4): > 100 µM (inactive)
GI50 (Malme-3M): > 100 µM (inactive)
GI50 (NCI-H226): > 100 µM (inactive)
GI50 (NCI-H23): > 100 µM (inactive)
GI50 (NCI-H460): > 100 µM (inactive)
GI50 (NCI-H522): > 100 µM (inactive)
GI50 (NCI/ADR-RES): > 100 µM (inactive)
GI50 (OVCAR-3): > 100 µM (inactive)
GI50 (OVCAR-4): > 100 µM (inactive)
GI50 (OVCAR-5): > 100 µM (inactive)
GI50 (OVCAR-8): > 100 µM (inactive)
GI50 (PC-3): > 100 µM (inactive)
GI50 (RPMI-8226): > 100 µM (inactive)
GI50 (RXF 393): > 100 µM (inactive)
GI50 (SF-268): > 100 µM (inactive)
GI50 (SF-295): > 100 µM (inactive)
GI50 (SK-MEL-28): > 100 µM (inactive)
GI50 (SK-MEL-5): > 100 µM (inactive)
GI50 (SK-OV-3): > 100 µM (inactive)
GI50 (SNB-19): > 100 µM (inactive)
GI50 (SNB-75): > 100 µM (inactive)
GI50 (SR): > 100 µM (inactive)
GI50 (SW-620): > 100 µM (inactive)
GI50 (TK-10): > 100 µM (inactive)
GI50 (U-251): > 100 µM (inactive)
GI50 (UACC-257): > 100 µM (inactive)
GI50 (UACC-62): > 100 µM (inactive)
GI50 (UO-31): > 100 µM (inactive)

NCCCCC(NC(=O)C(N)Cc1ccc(O)cn1)C(=O)O (stereo unspecified)
GI50 (786-0): > 100 µM (inactive)
GI50 (A498): > 100 µM (inactive)
GI50 (A549): > 100 µM (inactive)
GI50 (ACHN): > 100 µM (inactive)
GI50 (BT-549): > 100 µM (inactive)
GI50 (CAKI-1): > 100 µM (inactive)
GI50 (CCRF-CEM): > 100 µM (inactive)
GI50 (COLO 205): > 100 µM (inactive)
GI50 (DU-145): > 100 µM (inactive)
GI50 (EKVX): > 100 µM (inactive)
GI50 (HCC 2998): > 100 µM (inactive)
GI50 (HCT-116): > 100 µM (inactive)
GI50 (HCT-15): > 100 µM
GI50 (HL-60): > 100 µM (inactive)
GI50 (HOP-62): > 100 µM (inactive)
GI50 (HOP-92): > 100 µM (inactive)
GI50 (HT-29): > 100 µM (inactive)
GI50 (Hs-578T): > 100 µM (inactive)
GI50 (IGROV-1): > 100 µM (inactive)
GI50 (K562): > 100 µM (inactive)
GI50 (KM12): > 100 µM (inactive)
GI50 (LOX IMVI): > 100 µM (inactive)
GI50 (MCF7): > 100 µM (inactive)
GI50 (MDA-MB-231): > 100 µM (inactive)
GI50 (MDA-MB-435): > 100 µM (inactive)
GI50 (MDA-N): > 100 µM (inactive)
GI50 (MOLT-4): > 100 µM (inactive)
GI50 (Malme-3M): > 100 µM (inactive)
GI50 (NCI-H226): > 100 µM (inactive)
GI50 (NCI-H23): > 100 µM (inactive)
GI50 (NCI-H460): > 100 µM (inactive)
GI50 (NCI-H522): > 100 µM (inactive)
GI50 (NCI/ADR-RES): > 100 µM (inactive)
GI50 (OVCAR-3): > 100 µM (inactive)
GI50 (OVCAR-4): > 100 µM (inactive)
GI50 (OVCAR-5): > 100 µM (inactive)
GI50 (OVCAR-8): > 100 µM (inactive)
GI50 (PC-3): > 100 µM (inactive)
GI50 (RPMI-8226): > 100 µM (inactive)
GI50 (RXF 393): > 100 µM (inactive)
GI50 (SF-268): > 100 µM (inactive)
GI50 (SF-295): > 100 µM (inactive)
GI50 (SF-539): > 100 µM (inactive)
GI50 (SK-MEL-28): > 100 µM (inactive)
GI50 (SK-MEL-5): > 100 µM (inactive)
GI50 (SN12C): > 100 µM (inactive)
GI50 (SNB-19): > 100 µM (inactive)
GI50 (SR): > 100 µM (inactive)
GI50 (SW-620): > 100 µM (inactive)
GI50 (TK-10): > 100 µM (inactive)
GI50 (U-251): > 100 µM (inactive)
GI50 (UACC-257): > 100 µM (inactive)
GI50 (UO-31): > 100 µM (inactive)
